# Source: patent US20160113932A1, “TREATMENT OF CANCERS USING PI3 KINASE ISOFORM MODULATORS” (INFINITY PHARMACEUTICALS, INC., priority 2013, published 2016)
# Several values for one entry are separate records, joined by “and”; a condition that tells them apart may be missing. Identical values can stand only once. Entries after “also recorded” stand apart in the source; their conditions may differ.
# Assays:
# Human T-cell = Human T-cell proliferation; type: cell-based
# [1] = test system: PI3K-δ specific basophil activation; assay: Anti-fCER1 BAT: PI3K-δ specific basophil activation in human whole blood; type: cell-based; conditions: read-out: Anti-fCER1 BAT (delta) EC50
# [2] = Plasma protein binding in vitro, rat; type: in vitro ADME; conditions: all concentrations tested
# [3] = Plasma protein binding in vitro, monkey; type: in vitro ADME; conditions: all concentrations tested
# respiratory system = assay: Respiratory study in Sprague Dawley rat; type: in vivo; conditions: male rat, single oral administration up to 350 mg/kg
# [4] = test system: hemodynamic and electrocardiographic parameters; assay: Cardiovascular study in instrumented cynomolgus monkey; type: in vivo; conditions: male cynomolgus monkeys
# Description: Four non-naive, male monkeys implanted with radiotelemetry transmitters were utilized during the conduct of this study.
# [5] = Absolute bioavailability / pharmacokinetics in BALB/c mice; type: in vivo; conditions: Mouse, PO, 10 mg/kg, suspension, calculated using AUC0-last
# [6] = Absolute bioavailability / pharmacokinetics in Sprague-Dawley rats; type: in vivo; conditions: Rat, PO, 10 mg/kg, suspension
# [7] = Absolute bioavailability / pharmacokinetics in Beagle dogs; type: in vivo; conditions: Dog, PO, 5 mg/kg
# [8] = Absolute bioavailability / pharmacokinetics in cynomolgus monkeys; type: in vivo; conditions: Monkey, PO, 5 mg/kg, suspension
# [9] = Tissue distribution of radiolabelled Compound 292 in rat; type: in vivo
# human P-glycoprotein = target: T1, human P-glycoprotein (Homo sapiens, UniProt P08183); assay: Interaction with human P-glycoprotein in Caco-2 cell monolayers; type: in vitro ADME
# T1 construct: assessed in vitro using Caco-2 cell monolayers; endogenous in cells; host or cells: Caco-2 cell monolayers
# T1 sequence (P08183 whole entry): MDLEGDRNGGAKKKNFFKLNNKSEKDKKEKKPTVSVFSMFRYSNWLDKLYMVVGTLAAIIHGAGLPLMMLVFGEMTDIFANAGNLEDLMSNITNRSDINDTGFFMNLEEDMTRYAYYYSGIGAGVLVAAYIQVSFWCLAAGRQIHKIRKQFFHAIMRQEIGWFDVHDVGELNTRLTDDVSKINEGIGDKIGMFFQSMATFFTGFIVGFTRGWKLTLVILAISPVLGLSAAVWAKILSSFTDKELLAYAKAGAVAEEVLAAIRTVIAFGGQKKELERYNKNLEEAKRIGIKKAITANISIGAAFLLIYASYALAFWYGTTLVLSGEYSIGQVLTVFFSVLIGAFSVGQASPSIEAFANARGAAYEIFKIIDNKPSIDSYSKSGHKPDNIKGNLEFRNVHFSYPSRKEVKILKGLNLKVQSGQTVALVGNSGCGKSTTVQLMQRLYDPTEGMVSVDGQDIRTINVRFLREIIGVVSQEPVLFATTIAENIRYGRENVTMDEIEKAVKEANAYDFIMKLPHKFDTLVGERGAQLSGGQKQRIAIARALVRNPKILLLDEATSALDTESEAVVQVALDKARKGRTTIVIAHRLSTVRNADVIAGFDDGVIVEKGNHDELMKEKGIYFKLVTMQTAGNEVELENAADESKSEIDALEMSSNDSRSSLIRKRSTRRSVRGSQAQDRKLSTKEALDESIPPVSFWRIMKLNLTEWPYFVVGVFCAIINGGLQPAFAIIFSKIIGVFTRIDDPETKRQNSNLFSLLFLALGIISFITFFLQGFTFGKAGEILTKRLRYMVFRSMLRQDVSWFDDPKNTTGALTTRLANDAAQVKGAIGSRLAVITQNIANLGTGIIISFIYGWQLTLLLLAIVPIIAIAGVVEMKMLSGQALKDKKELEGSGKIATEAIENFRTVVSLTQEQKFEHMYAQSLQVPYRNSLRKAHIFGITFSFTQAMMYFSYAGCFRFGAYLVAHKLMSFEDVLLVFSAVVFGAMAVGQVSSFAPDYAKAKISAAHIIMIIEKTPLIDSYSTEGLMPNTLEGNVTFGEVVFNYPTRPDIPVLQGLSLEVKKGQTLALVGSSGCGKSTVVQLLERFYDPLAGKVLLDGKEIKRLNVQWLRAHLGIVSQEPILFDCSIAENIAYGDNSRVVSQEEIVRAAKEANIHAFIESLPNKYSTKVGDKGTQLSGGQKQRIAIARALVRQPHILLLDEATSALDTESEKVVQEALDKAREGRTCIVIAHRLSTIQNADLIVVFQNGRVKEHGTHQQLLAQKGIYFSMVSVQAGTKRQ
# [10] = In vitro genetic toxicity studies
# [11] = In vivo rat micronucleus assay
# [12] = Clinical pharmacokinetics after 25 mg or 75 mg BID administration; type: in vivo, human
# PI3K δ = PI3K δ (Homo sapiens, UniProt O00329); assay: PI3K-δ suppression level (IC90) quoted with clinical plasma concentrations
# Chain of PI3K δ (O00329 whole entry, species assumed): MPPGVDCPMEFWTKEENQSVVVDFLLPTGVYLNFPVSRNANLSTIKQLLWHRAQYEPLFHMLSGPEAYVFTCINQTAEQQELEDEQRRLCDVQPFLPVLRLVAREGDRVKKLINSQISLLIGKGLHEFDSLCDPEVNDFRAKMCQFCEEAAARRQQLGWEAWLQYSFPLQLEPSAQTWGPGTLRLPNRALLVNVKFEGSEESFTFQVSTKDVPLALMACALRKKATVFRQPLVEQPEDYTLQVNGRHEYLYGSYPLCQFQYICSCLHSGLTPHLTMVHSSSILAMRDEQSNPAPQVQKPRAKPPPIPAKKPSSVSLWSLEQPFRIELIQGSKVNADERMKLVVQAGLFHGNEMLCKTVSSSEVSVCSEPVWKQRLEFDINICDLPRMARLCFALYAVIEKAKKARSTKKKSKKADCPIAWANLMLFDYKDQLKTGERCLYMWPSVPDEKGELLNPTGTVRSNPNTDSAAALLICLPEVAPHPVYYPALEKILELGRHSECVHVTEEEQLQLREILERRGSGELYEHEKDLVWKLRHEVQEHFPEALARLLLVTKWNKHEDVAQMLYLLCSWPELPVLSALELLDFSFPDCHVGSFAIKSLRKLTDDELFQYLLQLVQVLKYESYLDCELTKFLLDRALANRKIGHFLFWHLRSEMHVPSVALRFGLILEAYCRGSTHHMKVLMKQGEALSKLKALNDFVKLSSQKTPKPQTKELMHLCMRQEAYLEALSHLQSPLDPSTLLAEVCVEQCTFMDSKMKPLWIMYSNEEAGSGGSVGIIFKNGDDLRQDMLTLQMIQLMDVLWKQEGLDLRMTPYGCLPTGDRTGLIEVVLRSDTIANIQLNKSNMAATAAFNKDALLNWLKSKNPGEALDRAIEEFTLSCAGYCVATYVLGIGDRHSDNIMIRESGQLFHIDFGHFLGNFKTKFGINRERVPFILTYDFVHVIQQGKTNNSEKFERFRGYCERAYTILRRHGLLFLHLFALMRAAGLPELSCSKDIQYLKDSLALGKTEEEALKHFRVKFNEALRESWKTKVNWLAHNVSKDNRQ
# Chain of PI3K δ (P27986 whole entry partner, species assumed): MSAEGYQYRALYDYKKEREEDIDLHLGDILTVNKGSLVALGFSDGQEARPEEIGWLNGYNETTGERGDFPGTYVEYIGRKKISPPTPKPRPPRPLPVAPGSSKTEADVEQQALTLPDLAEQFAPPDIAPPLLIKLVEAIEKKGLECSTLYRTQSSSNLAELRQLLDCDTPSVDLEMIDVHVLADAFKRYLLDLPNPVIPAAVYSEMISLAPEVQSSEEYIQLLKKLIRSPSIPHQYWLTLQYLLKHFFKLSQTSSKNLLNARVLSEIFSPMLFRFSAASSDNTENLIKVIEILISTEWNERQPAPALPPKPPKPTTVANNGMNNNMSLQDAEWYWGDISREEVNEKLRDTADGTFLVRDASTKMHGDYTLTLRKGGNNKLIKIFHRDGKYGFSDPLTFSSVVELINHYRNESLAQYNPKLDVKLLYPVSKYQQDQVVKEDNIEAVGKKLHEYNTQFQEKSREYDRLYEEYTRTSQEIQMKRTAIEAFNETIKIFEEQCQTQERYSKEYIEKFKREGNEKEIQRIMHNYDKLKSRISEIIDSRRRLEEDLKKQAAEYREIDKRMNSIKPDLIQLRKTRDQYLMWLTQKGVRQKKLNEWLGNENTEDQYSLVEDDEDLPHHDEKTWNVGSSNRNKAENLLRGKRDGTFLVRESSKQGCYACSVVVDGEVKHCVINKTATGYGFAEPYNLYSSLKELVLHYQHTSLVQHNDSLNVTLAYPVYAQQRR
# [13] = Phase 1 study in healthy subjects: safety and tolerability; type: in vivo
# Protocol: Serial ECGs were performed at multiple time points after dosing in all study groups.
# In addition, a rapid response was observed, assessed as reduction in CD63^+ expression on CCR3^+ basophils in an ex vivo anti-FcεR1 activation assay (FIG. 1-3). […] CD63^+ expression returned to baseline as plasma drug concentrations declined. […] The most common non-procedural AEs occurring in ≧2 subjects were headache (8% vs. 25% PLB), myalgia (6% vs. 8% PLB), and nasopharyngitis (6% vs. 0% PLB). […] No clinical significant findings in safety lab studies of ECGs were observed.
# [14] = test system: CD63 expression on the surface of activated CCR3+ basophils; assay: Basophil activation, ex vivo anti-FcεR1 activation assay, healthy subjects; type: in vivo, human; conditions: single dose administration
# [15] = Phase 1 study in hematologic malignancies: pharmacokinetics, steady state plasma concentrations; type: in vivo, human
# Protocol: (§1) PK and PD markers were evaluated after the first dose (e.g., 8 mg BID) and at steady state. PD activity (PI3K inhibition) in whole blood was evaluated using a basophil activation assay which measured reduction in CD63 expression on the surface of basophils following ex vivo stimulation.
# [16] = test system: CD63 expression on the surface of basophils; assay: Basophil activation assay in whole blood of oncology patients (PI3K inhibition); type: in vivo, human; conditions: from PK/PD in patients
# Protocol: as §1
# Pfeiffer = assay: DLBCL cellular growth inhibition assay; type: cell-based; conditions: Homo sapiens
# Toledo = assay: DLBCL cellular growth inhibition assay; type: cell-based; conditions: Homo sapiens
# HH = assay: CTCL cytotoxicity, 72 hours; type: cell-based; conditions: HH cells, vs MJ or HuT78
# Protocol: (§2) MJ and HuT78 cells were grown in IMDM 20% FBS, and HH cells were grown in RPMI 10% FBS.
# HuT78 = assay: CTCL cytotoxicity, 72 hours; type: cell-based; conditions: HuT78 cells
# Protocol: as §2
# MJ = assay: CTCL cytotoxicity, 72 hours; type: cell-based; conditions: MJ cells
# Protocol: as §2
# [17] = test system: pAKT and Ki-67 expression in primary CLL cells; assay: CLL cell proliferation with CD40L/IL-2/IL-10, four color FACS; type: cell-based; conditions: Homo sapiens, primary CLL cells stimulated with CD40L/IL-2/IL-10, n=2, read-out: EC50, inhibition of pAKT and Ki-67 expression
# Protocol: Generally, CLL cells were seeded and incubated with proliferation cocktail (containing sCD40L, rH-IL 10 and rH-IL 2) in media. Then, four color FACS analysis was performed using antibodies to pAKT, Ki-67, CD19 and CD5.
# migration of CLL cells = assay: Chemotaxis assay of CLL cells; type: cell-based, human; conditions: range 2-42%; n=8
# Description: (FIGS. 35 and 36). […] In addition, this direct inhibitory effect on CLL cells in the lymph nodes could lead to rapid and prolonged responses in cancer patients.
# hERG channel current = hERG channel current (Homo sapiens, UniProt Q12809); assay: In vitro hERG assay; conditions: hERG IC50 fit
# Chain of hERG channel current (Q12809 whole entry): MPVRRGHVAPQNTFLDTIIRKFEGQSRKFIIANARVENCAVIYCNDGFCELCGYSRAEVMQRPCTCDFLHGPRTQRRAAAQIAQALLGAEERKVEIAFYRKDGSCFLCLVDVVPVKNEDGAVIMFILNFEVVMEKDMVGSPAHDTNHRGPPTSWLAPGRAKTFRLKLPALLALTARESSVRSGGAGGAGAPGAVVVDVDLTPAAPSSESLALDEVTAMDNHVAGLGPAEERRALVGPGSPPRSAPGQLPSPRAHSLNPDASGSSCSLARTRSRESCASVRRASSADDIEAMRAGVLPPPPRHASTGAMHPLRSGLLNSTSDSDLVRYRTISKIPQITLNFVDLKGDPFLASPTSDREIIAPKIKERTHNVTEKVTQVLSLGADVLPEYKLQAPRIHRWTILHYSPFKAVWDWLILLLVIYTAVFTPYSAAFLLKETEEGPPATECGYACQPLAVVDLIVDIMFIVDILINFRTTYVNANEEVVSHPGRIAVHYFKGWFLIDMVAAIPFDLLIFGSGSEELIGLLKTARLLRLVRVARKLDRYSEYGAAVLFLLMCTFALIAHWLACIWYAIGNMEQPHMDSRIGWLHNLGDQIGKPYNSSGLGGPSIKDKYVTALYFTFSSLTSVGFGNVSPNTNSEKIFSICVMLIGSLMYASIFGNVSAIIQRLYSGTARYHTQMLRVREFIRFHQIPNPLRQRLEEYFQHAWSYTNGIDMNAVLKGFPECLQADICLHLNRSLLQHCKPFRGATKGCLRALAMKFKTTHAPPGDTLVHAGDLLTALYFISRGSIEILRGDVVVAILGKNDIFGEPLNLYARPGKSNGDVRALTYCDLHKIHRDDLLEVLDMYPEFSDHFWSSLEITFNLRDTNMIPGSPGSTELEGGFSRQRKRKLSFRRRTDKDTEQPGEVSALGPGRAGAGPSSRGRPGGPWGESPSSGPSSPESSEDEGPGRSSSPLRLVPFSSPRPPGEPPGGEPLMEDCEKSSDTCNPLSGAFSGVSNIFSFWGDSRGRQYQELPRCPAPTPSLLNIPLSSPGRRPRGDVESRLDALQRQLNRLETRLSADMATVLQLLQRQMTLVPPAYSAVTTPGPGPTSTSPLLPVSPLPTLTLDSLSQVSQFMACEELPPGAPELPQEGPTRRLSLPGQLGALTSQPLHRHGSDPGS
# [18] = multiple doses for 2 weeks (n=36)
smiles,measurement,setting,value
C[C@H](Nc1ncnc2[nH]cnc12)c1cc2cccc(Cl)c2c(=O)n1-c1ccccc1 [Compound 292],EC50,Human T-cell,0.005 to 0.01 µM
same,EC50,[1],0.01 to 0.1 µM
same,percent free in plasma compared with human plasma,[2],consistently higher
same,percent free in plasma compared with human plasma,[3],consistently higher
same,"effects on respiratory parameters (respiratory rate, tidal volume, minute volume)",respiratory system,no Compound 292-related effects
same,effects on hemodynamic or electrocardiographic parameters,"[4]; single oral dose of 5, 30, and 150 mg/kg",No Compound 292-related effects
same,waveform abnormalities or arrhythmias,[4]; up to 150 mg/kg,no waveform abnormalities or arrhythmias
same,Foral,[5],7% and 7i %
same,Foral,[6],57%
same,Foral,[7]; calculated using 0.5 mg/kg IV dose as reference and AUC0-last,97g'i %
same,Foral,[7]; calculated using 1 mg/kg IV dose as reference and AUC0-last,40% and 40h'i %
same,Foral,[8],40%
same,distribution into rat tissues,[9],rapid and extensive
same,elimination of radiolabelled Compound 292 from tissues,[9]; majority of tissues without quantifiable radioactivity at 24 hr,rapid
same,P-gp substrate status,human P-glycoprotein,is a P-gp substrate
same,inhibition of active transport of other P-gp substrates,human P-glycoprotein,has the potential to inhibit
same,genetic toxicity,[10],no genetic toxicity
same,adverse effect in micronucleus assay,[11],no direct adverse effect
same,mean predose steady state plasma concentration,[12]; 25 mg BID,about 390 ng/ml
same,time of maximal plasma concentrations following dosing,[12]; 25 mg or 75 mg BID,around 1 hour
same,AUC versus dose,[12]; doses through 75 mg BID,increases proportionally with doses
same,half-life,"[12]; human, plasma, oral, both 25 mg and 75 mg BID, read-out: elimination half-life",4 to 5 h
same,IC90,PI3K δ,0.361 mg/L
same,IgE,[13]; healthy subjects,No increases in IgE
same,QTcF at any assessment,"[13]; healthy subjects, serial ECGs",≤ 500 ms
same,tolerability,"[13]; healthy subjects, single doses up to 30 mg, multiple doses up to 10 mg daily for 14 days",well tolerated; also recorded: well-tolerated
same,"headache, subjects",[13]; [18],8%
same,"myalgia, subjects",[13]; [18],6%
same,"nasopharyngitis, subjects",[13]; [18],6%
same,dose at which maximal PD response was achieved,[14],5 mg
same,mean predose steady state plasma concentration,"[15]; 25 mg BID, C2D1",390 ng/mL
same,dose dependence of plasma Cmax and AUC,"[15]; patients with hematologic malignancies, BID dosing",dose-proportional increases; also recorded: dose-proportional PK; also recorded: linear PK profile; also recorded: increases proportionally with doses
same,time of maximum plasma concentration post-dosing,"[15]; steady state C2D1, 25 mg and 75 mg BID",about 1 hour
same,dose achieving complete inhibition of PI3K-δ,[16],≥ 15 mg BID
same,doses that increasingly suppress PI3K-γ,[16],≥ 25 mg BID
same,IC50,Pfeiffer,> 50 µM
same,IC50,Toledo,> 50 µM
same,"cytotoxicity, sensitivity",HH,more sensitive
same,"cytotoxicity, sensitivity",HuT78,medium sensitivity
same,"cytotoxicity, sensitivity",MJ,resistant
same,EC50,[17],< 0.01 µM
same,"reduction in migration of CLL cells, % control reduction, median",migration of CLL cells,23%
same,Hill coefficient,hERG channel current,1.3
